Test results as given in ChEMBL document CHEMBL5506011, “Discovery of novel and selective farnesoid X receptor antagonists through structure-based virtual screening, preliminary structure-activity relationship study, and biological evaluation” (Eur J Med Chem, 2024).

Tests used:
Assay type in all cases: organism-based
[1] = Toxicity in male C57BL/6 mouse assessed as total bile acid level in serum at 20 to 40 mg/kg, po measured after 4 days; details: in vivo, 96 h, dose 20-40 mg/kg, time 4 day
[2] = Toxicity in male C57BL/6 mouse assessed as aspartate transaminase (AST) level in serum at 20 to 40 mg/kg, po measured after 4 days; details: in vivo, 96 h, dose 20-40 mg/kg, time 4 day
[3] = Toxicity in male C57BL/6 mouse assessed as alanine transaminase (ALT) level in serum at 20 mg/kg, ip measured after 4 days; details: in vivo, 96 h, time 4 day
[4] = Toxicity in male C57BL/6 mouse assessed as aspartate transaminase (AST) level in serum at 20 mg/kg, ip measured after 4 days; details: in vivo, 96 h, time 4 day
[5] = Toxicity in male C57BL/6 mouse assessed as total bile acid level in serum at 20 mg/kg, ip measured after 4 days; details: in vivo, 96 h, time 4 day

Measured: Activity

Cc1ccc(C)c(OCCCC(C)(C)C(=O)NCC(=O)c2ccc(O)cc2)c1
Non-Toxic: all assays above
